Where “and” joins values, the source holds several entries; their conditions need not be identical. Identical values can stand only once.
System: mouse ear swelling
Experiment: Croton oil mouse ear swelling, IL-17A inhibitory peptide administered via duodenum
Assay type: in vivo
Conditions: peptides 300 mg/kg, dexamethasone 1 mg/mL, 10 mL/kg
Description: Enteric coating technology can be used to achieve oral administration of targeted small intestine drugs. Considering factors such as gastric emptying and physical barriers in the stomach, in order to accurately detect the feasibility of direct intestinal administration of targeted IL-17A inhibitory peptide, duodenal administration is designed. Eight mice in each group are subjected to surgical exposure of the duodenum under ether anesthesia, and the drug is injected according to different grouping schemes.
The model control group (Con) is given PEG400 (50%, w/v)/physiological saline. The administration group was given different polypeptide samples (300 mg/kg), while the positive control group was given dexamethasone (1 mg/mL, 10 mL/kg), and then the muscular layer and cortex were sutured. Ear swelling model was established 6 minutes after suture. All mice in each group were coated with 10 μL croton oil on both sides of the right ear. After 4 hours of inflammation, the mice in each group were killed for cervical dislocation. After that, ear pieces were punched in the symmetrical parts of the left and right ears with a hole punch and weighed. Their mass was recorded. The swelling degree and swelling rate were calculated:
Swelling rate=((right ear mass−left ear mass)/left ear mass)*100%

With `C[C@@H]1C[C@H]2[C@@H]3CCC4=CC(=O)C=C[C@]4(C)[C@@]3(F)[C@@H](O)C[C@]2(C)[C@@]1(O)C(=O)CO` [dexamethasone] the “Swelling (%)” value (4 hours after croton oil) was 58.11 ± 18.81 % and 65.67 ± 15.52 % and the “Swelling inhibitory (%)” value (vs model control) was 39.57% and 28.84%.

From patent publication US20230416329A1, “A PEPTIDE WITH DISULFIDE BONDS AND INHIBITORY ACTIVITY AGAINST SERINE PROTEASES, DERIVED HYBRID PEPTIDES THEREOF, AND USES THEREOF” (INSTITUTE OF MATERIA MEDICA , CHINESE ACADEMY OF MEDICAL …, priority 2020, published 2023)
